This note sets out measurements from ChEMBL document CHEMBL4342466, “Novel, Self-Assembling Dimeric Inhibitors of Human β Tryptase” (J Med Chem, 2020).

The nature of data set [1]: Inhibition of human recombinant beta-tryptase pre-incubated for 3 hrs before N-tert-butoxycarbonyl-Gln-Ala-Arg-AMC substrate addition and measured every 30 secs for 15 mins by spectrometry.
The target in data set [2] is T1, Tryptase beta-2 (Mus musculus, UniProt P21845).
T1 sequence (P21845 whole entry): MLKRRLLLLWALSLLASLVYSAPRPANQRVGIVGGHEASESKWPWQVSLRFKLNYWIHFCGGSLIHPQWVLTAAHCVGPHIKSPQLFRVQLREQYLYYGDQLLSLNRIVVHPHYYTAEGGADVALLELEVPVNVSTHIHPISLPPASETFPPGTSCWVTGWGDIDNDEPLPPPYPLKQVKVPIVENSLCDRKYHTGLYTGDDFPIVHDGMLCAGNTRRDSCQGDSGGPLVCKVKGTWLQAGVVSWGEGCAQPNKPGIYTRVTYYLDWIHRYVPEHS
Put plainly: Inhibition of mouse MCP6 pre-incubated for 3 hrs before N-tert-butoxycarbonyl-Gln-Ala-Arg-AMC substrate addition and measured every 30 secs for 15 mins by spectrometry.

A short description of data set [3]: Stability in human liver microsomes assessed as parent compound remaining at 15 uM in presence of NADPH incubated for 60 mins. Format: ADME, Microsome. As to conditions: for Stability: microsomes, 1 h, 15 µM; for remaining at 1 h, 15 µM: liver microsomes, read-out: Stability.
Data set [4] can be described thus: Stability in human liver microsomes assessed as parent compound remaining at 15 uM in absence of NADPH incubated for 60 mins. Format: ADME, Microsome. To be noted: for Stability: microsomes, 1 h, 15 µM; for remaining at 1 h, 15 µM: liver microsomes, read-out: Stability. In general terms: Liver microsomes are a subcellular fraction often used to study metabolism.

A short description of data set [5]: Stability in human liver microsomes assessed as parent compound remaining at 15 uM in presence of UDPGA incubated for 60 mins. Format: ADME, Microsome. To be noted: for Stability: microsomes, 1 h, 15 µM; for remaining at 1 h, 15 µM: liver microsomes, read-out: Stability.

Consider `NCc1ccc2c(c1)C1(CCN(C(=O)c3ccc(Cl)c(-c4cccc(B(O)O)c4)c3)CC1)CO2`, for which the IC50 (as a rule, the midpoint of a concentration-inhibition curve) amounted to 1100 nM in data set [1] and 599 nM in data set [2].
On to `Cc1cc(C(=O)N2CCC(c3cccc(CN)c3)CC2)cc(-c2cccc(B(O)O)c2)c1C`, for which the IC50 in data set [1] worked out at 1250 nM.
`NCc1ccc2c(c1)C1(CCN(C(=O)c3ccc(CO)c(O)c3)CC1)CO2`: the IC50 stood at 656 nM in data set [1] and 4690 nM in data set [2]. Moreover, the Stability result in data set [3], in data set [4] and in data set [5] was “Stable” throughout.
Regarding `NCc1cccc(C2CCN(C(=O)c3ccc(CO)c(O)c3)CC2)c1`, the IC50 in data set [1] is 65.8 nM; in data set [2] it was 1550 nM. For the same molecule, the figures for the remaining at 1 h, 15 µM in data set [3], in data set [4] and in data set [5] were 68%, 63% and 81%, respectively.
In the case of `CONC(=O)c1cc(C(=O)N2CCC(c3cccc(CN)c3)CC2)ccc1O`, the IC50 in data set [1] came to 3310 nM; in data set [2], 455 nM. The values for the remaining at 1 h, 15 µM in data set [3], in data set [4] and in data set [5] were 84%, 81% and 68%, respectively.
Regarding `CSc1sc(C(=O)N2CCC3(CC2)COc2ccc(CN)cc23)cc1-c1cccc2c1COB2O`, the IC50 in data set [1] came to 18 nM. Further, the Stability entry in data set [3], in data set [4] and in data set [5] was “Stable” in each case.
On to `CONC(=O)c1cc(C(=O)N2CCC3(CC2)COc2ccc(CN)cc23)ccc1O`, for which the IC50 in data set [1] was 570 nM; in data set [2] it was 2160 nM. The remaining at 1 h, 15 µM in data set [3] is 87%; in data set [5], 67%. In data set [4], the Stability entry is given as “Stable”.
In the case of `Cc1cc(C(=O)N2CCC3(CC2)COc2ccc(CN)cc23)cc(-c2cccc(B(O)O)c2)c1C`, in data set [1], the IC50 was determined as 1360 nM.
`NCc1ccc2c(c1)C1(CCN(C(=O)c3ccc(O)c(O)c3)CC1)CO2`: the figures for the IC50 in data set [1] and in data set [2] were 635 nM and 2540 nM, respectively. Also, the Stability result in data set [3] is given as “Stable”. Besides, the remaining at 1 h, 15 µM in data set [4] was 94%; in data set [5] it was 87%.
Take `CSc1sc(C(=O)N2CCC(c3cccc(CN)c3)CC2)cc1-c1cccc2c1COB2O`: the IC50 in data set [1] turned out to be 14.2 nM.
On to `COc1cc(C(=O)N2CCC(c3cccc(CN)c3)CC2)cc(O)c1O`, for which the IC50 in data set [1] turned out to be 925 nM; in data set [2], 7430 nM.
`NCc1cccc(C2CCN(C(=O)/C=C/c3ccc4c(c3)OB(c3ccc5cccc(C(=O)N6CCC(c7cccc(CN)c7)CC6)c5c3)O4)CC2)c1`: the IC50 in data set [1] worked out at 411 nM.
Turning to `NCc1cccc(C2CCN(C(=O)c3cc(O)c(O)c(Cl)c3)CC2)c1`, the 50% inhibitory concentration (IC50) in data set [1] is 339 nM; in data set [2], 17500 nM. Besides, the remaining at 1 h, 15 µM in data set [3] was 29%; in data set [4], 28%; in data set [5], 18%.
As for `CONC(=O)c1ccc(C(=O)N2CCC(c3cccc(CN)c3)CC2)cc1O`, in data set [1], the IC50 stood at 120 nM. Moreover, the Stability entry in data set [3], in data set [4] and in data set [5] was “Stable” in each case.
For the molecule `CONC(=O)c1ccc(C(=O)N2CCC3(CC2)COc2ccc(CN)cc23)cc1O`, the IC50 in data set [1] amounted to 43.4 nM. Besides, the Stability entry in data set [3], in data set [4] and in data set [5] was “Stable” in each case.
As for `COc1cc(C(=O)N2CCC3(CC2)COc2ccc(CN)cc23)cc(O)c1O`, the IC50 in data set [1] was 953 nM; in data set [2] it was 11800 nM. In addition, the remaining at 1 h, 15 µM in data set [3] was 74%; in data set [5] it was 72%. Further, the Stability entry in data set [4] is “Stable”.
